Test results from patent US20130298921A1, “INHALER FOR SMOKING CESSATION” (Rock Creek Pharmaceuticals, Inc., priority 2011, published 2013).
Like-named read-outs stand apart in the source and are kept apart here.

Tests used:
[1] = test system: nicotine self-administration in rhesus monkeys; test: nicotine self-administration in nonhuman primate model (second-order schedule, nicotine- and food-maintained responding); assay type: in vivo, rhesus monkeys (Macaca Mulatta); settings: for food-maintained responding (change with increasing anatabine doses): anatabine 0.18-3.2 mg/kg IM; for nicotine self-administration: single doses of anatabine 0.18-3.2 mg/kg IM, nicotine training dose 0.01 mg/kg/inj (base)
From the text: Food was available during three 1-hour sessions each day (7 AM, 3 PM and 7 PM).
Food pellets were limited to 25 per session or 100 per day.
Nicotine doses are expressed as the base.

[2] = test system: nicotine self-administration by rats; test: nicotine self-administration by rats; assay type: in vivo; settings: anatabine 1.8 and 3.2 mg/kg IP; peak reinforcing nicotine doses 0.003 and 0.01 mg/kg/inj; P<0.05-0.001; FIG. 6
α4/β2 nAChR channel = target: T1, α4/β2 nAChR channel (Homo sapiens, UniProt P17787+P43681); test: Fluo-8 calcium FLIPR assay, cloned nAChR channels in mammalian cells; assay type: cell-based
T1 construct: expressed in transfected cells
T1 sequence (P43681 29-627 limits assumed): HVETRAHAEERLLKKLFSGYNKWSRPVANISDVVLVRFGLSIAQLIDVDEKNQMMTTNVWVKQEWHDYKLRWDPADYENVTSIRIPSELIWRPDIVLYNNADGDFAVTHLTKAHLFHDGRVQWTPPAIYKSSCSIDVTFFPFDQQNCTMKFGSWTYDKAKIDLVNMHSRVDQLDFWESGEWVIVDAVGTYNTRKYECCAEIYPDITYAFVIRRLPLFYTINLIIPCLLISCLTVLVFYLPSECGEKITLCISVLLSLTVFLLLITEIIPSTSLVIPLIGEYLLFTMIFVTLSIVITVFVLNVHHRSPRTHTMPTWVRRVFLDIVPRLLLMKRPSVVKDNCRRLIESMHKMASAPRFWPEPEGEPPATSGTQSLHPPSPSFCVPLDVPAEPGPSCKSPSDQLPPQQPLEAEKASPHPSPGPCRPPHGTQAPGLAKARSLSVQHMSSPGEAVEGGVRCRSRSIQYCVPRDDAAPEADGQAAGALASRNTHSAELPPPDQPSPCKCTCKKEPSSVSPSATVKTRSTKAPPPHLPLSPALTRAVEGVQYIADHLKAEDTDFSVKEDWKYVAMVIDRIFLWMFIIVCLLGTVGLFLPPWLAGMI
T1 sequence (P17787 26-502): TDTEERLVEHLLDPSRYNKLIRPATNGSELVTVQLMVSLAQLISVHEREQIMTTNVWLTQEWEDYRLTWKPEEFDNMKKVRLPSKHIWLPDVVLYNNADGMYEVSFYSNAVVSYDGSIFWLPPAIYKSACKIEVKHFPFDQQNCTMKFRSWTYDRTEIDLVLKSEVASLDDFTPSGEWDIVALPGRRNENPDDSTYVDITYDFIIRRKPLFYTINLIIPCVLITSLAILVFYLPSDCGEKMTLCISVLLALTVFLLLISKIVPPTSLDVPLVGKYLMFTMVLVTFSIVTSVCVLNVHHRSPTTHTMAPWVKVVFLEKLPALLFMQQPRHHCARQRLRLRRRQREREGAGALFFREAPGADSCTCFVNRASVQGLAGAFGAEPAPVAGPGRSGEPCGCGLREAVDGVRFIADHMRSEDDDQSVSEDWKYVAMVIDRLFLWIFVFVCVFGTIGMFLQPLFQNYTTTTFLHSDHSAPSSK

α3/β4 nAChR channel = target: T2, α3/β4 nAChR channel (Homo sapiens, UniProt P30926+P32297); test: as above; assay type: cell-based
T2 construct: expressed in transfected cells
T2 sequence (P32297 32-505): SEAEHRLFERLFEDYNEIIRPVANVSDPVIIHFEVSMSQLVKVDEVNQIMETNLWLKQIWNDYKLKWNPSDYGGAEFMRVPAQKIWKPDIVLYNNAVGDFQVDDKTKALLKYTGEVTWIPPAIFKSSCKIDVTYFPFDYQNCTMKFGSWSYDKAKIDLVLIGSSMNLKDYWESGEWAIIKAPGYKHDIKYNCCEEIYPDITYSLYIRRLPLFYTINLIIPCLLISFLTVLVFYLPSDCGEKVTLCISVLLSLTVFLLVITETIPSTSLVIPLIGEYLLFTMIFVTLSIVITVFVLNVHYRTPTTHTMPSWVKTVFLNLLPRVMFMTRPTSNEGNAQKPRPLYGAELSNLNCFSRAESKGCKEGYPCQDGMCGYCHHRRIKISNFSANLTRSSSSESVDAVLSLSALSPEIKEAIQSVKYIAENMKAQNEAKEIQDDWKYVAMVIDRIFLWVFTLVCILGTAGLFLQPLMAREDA
T2 sequence (P30926 22-498): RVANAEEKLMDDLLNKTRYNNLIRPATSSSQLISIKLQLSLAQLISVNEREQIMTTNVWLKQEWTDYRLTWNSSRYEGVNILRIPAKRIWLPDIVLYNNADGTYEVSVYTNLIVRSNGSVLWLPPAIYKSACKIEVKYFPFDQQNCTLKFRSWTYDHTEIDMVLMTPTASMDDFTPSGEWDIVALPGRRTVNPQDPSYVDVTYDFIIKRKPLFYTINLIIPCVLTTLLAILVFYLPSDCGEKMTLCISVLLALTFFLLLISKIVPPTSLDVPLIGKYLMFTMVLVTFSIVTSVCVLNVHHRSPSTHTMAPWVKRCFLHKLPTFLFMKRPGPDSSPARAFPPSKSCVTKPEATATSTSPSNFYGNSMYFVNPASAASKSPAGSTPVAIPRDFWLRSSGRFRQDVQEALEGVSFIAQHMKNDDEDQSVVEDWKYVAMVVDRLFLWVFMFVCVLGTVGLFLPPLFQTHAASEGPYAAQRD

α7 nAChR channel = target: T3, α7 nAChR channel (Homo sapiens, UniProt P36544); test: as above; assay type: cell-based; settings: for agonist character / maximum level of activation: agonist assay
T3 construct: expressed in transfected cells
T3 sequence (P36544 23-502): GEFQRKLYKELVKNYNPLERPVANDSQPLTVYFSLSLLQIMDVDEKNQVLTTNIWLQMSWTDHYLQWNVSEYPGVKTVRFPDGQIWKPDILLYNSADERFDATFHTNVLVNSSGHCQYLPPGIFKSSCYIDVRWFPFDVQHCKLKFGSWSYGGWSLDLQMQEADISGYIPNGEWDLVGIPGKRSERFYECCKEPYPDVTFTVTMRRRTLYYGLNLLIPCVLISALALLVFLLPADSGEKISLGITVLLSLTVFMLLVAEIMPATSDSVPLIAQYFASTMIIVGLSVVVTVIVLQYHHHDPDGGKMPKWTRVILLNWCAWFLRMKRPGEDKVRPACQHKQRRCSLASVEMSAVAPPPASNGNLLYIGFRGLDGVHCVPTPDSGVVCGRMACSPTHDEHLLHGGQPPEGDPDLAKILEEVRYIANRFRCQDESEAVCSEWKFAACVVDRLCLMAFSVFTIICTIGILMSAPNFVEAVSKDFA

[3] = test system: rodents trained to self-administer nicotine; test: reward in rodents trained to self-administer nicotine; assay type: in vivo
[4] = test system: precipitated nicotine withdrawal; test: precipitated nicotine withdrawal; assay type: in vivo, rodents; settings: anatabine administration
[5] = test system: nicotine self-administration by rats; settings: anatabine 1.8-5.6 mg/kg, Caine et al., 2013, cited from earlier work
[6] = test system: Frontal cortex (rat frontal homogenates); test: binding relative to nicotine in rat frontal homogenates; settings: reference set to 1.0
From the text: (§1) This example describes a study conducted on anatabine along with other common nicotinic alkaloids in rat frontal and hippocampal homogenates.

[7] = test system: Hippocampus (rat hippocampal homogenates); test: binding relative to nicotine in rat hippocampal homogenates; settings: reference set to 1.0
From the text: as §1

[8] = antagonist and positive allosteric modulator modes

C1=CCC(c2cccnc2)NC1 (racemic) [Anatabine, anatabine]
effect on nicotine dose-effect curve ([1]; anatabine 0.32 mg/kg, data for two monkeys): shifts the peak of the dose-effect curve to the right | effect on nicotine dose-effect curve ([1]; anatabine 1.0 mg/kg): flattened the dose-effect curve | food-maintained responding (change with increasing anatabine doses) [1]: no significant effects | food-maintained responding (change with increasing anatabine doses) ([1]; listed as anatabine): not statistically significant | decreases in nicotine-maintained responding versus baseline ([1]; anatabine doses of 1.8 and 3.2 mg/kg IM, P<0.005-0.02): significantly different from baseline | systematic behavioral assessments (sedation or agitation) ([1]; following each treatment session): no evidence of sedation or agitation | nicotine self-administration [1]: dose-dependently reduced | nicotine self-administration ([1]; listed as anatabine): dose-dependently decreased | nicotine-maintained responding [2]: significantly reduced | agonist character (α4/β2 nAChR channel; agonist assay): full agonist | antagonist or PAM effects (α4/β2 nAChR channel; [8]): no antagonist or PAM effects | EC50 (α3/β4 nAChR channel; agonist assay): 14.6 µM | agonist character (α3/β4 nAChR channel; agonist assay): partial agonist | antagonist or PAM effects (α3/β4 nAChR channel; [8]): no antagonist or PAM effects | agonist character (α7 nAChR channel): full, potent agonists | maximum level of activation (α7 nAChR channel): also similar (and similar to ACh) | antagonist or PAM effects (α7 nAChR channel; [8]): no antagonist or PAM effects | rewarding effect [3]: do not find anatabine to be rewarding | reversal of precipitated nicotine withdrawal [4]: does not reverse precipitated nicotine withdrawal | effect on nicotine dose-effect curve [5]: flattened the nicotine dose-effect curve | nicotine-maintained responding ([5]; nicotine 0.003 and 0.01 mg/kg/inj): significantly reduced

CN1CCCC1c1cccnc1 (single isomer, unassigned) [Nicotine, nicotine, reference compound]
food-maintained responding with increasing doses of nicotine ([1]; nicotine 0.001-0.1 mg/kg/inj): did not change | peak of the nicotine dose-effect curve ([1]; nicotine 0.001-0.1 mg/kg/inj, 7 monkeys): 0.0032 mg/kg/inj | Nicotine Binding Constant [6]: 1.0 | Nicotine Binding Constant [7]: 1.0 | agonist character (α3/β4 nAChR channel; agonist assay): full agonist | maximal response of the channel compared with ACh (α3/β4 nAChR channel; agonist assay): approached that of ACh | agonist character (α7 nAChR channel): full, potent agonists | maximum level of activation (α7 nAChR channel): also similar (and similar to ACh)
